Experimental data taken from ChEMBL document CHEMBL3885861, “Open TG-GATES”.

Species: Rattus norvegicus
Assay: Open TG-GATES - Regimen: Single
Assay type: toxicity, organism-based, Sprague-Dawley
Parameters: regimen Single, gender Male, age 6 weeks
Conditions: in vivo, po, 0 mg/kg, route gavage, dose level Control; for APTT / Bas / Eos / Fbg / Ht / MCH / MCHC / MCV / Mono / PT / Plat / RBC / Ret / WBC: tissue Blood; for KIDNEY_L / KIDNEY_R / KIDNEY_TOTAL: tissue Kidney; for LIVER: tissue Liver; for ALP / AST / BUN / CRE / Ca / Cl / DBIL / GLC / IP / K / LDH / Na / PL / RALB / TBIL / TC / TG / TP / gamma-GTP: tissue Plasma

CC(=O)Nc1nnc(S(N)(=O)=O)s1 [ACETAZOLAMIDE]
TERMINAL_BW (3 h): 214.4 g | APTT (3 h): 22 s | Bas (3 h): 0% | Eos (3 h): 0.8% | Fbg (3 h): 309 mg/dL | Ht (3 h): 39.4% | MCH (3 h): 21.3 pg | MCHC (3 h): 32.9% | MCV (3 h): 64.8 fL | Mono (3 h): 2.4% | PT (3 h): 16.5 s | Plat (3 h): 118.6 x10_4/uL | RBC (3 h): 608.6 x10_4/ul | Ret (3 h): 8.8% | WBC (3 h): 89.5 x10_2/uL | KIDNEY_L (3 h): 0.9 g | KIDNEY_R (3 h): 0.9 g | KIDNEY_TOTAL (3 h): 1.9 g | LIVER (3 h): 9.8 g | ALP (3 h): 1586.4 IU/L | AST (3 h): 80.2 IU/L | BUN (3 h): 12 mg/dL | CRE (3 h): 0.2 mg/dL | Ca (3 h): 11.1 mg/dL | Cl (3 h): 106.4 meq/L | DBIL (3 h): 0 mg/dL | GLC (3 h): 187.4 mg/dL | IP (3 h): 8.2 mg/dL | K (3 h): 4 meq/L | LDH (3 h): 235.8 IU/L | Na (3 h): 143 meq/L | PL (3 h): 137.6 mg/dL | RALB (3 h): 3.1 g/dL | TBIL (3 h): 0.018 mg/dL | TC (3 h): 78 mg/dL | TG (3 h): 59.8 mg/dL | TP (3 h): 5.4 g/dL | gamma-GTP (3 h): 1 IU/L | TERMINAL_BW (6 h): 207.4 g | APTT (6 h): 22.1 s | Bas (6 h): 0% | Eos (6 h): 0.8% | Fbg (6 h): 320.2 mg/dL | Ht (6 h): 39.1% | MCH (6 h): 20.8 pg | MCV (6 h): 62.8 fL | Mono (6 h): 2% | PT (6 h): 16.5 s | Plat (6 h): 131.7 x10_4/uL | RBC (6 h): 622.4 x10_4/ul | Ret (6 h): 8.3% | WBC (6 h): 79.7 x10_2/uL | KIDNEY_L (6 h): 1 g | KIDNEY_R (6 h): 0.9 g | KIDNEY_TOTAL (6 h): 1.9 g | LIVER (6 h): 9 g | ALP (6 h): 1340.2 IU/L | AST (6 h): 63.4 IU/L | CRE (6 h): 0.1 mg/dL | Ca (6 h): 11 mg/dL | Cl (6 h): 105 meq/L | DBIL (6 h): 0 mg/dL | GLC (6 h): 186.6 mg/dL | IP (6 h): 9.4 mg/dL | K (6 h): 4.3 meq/L | LDH (6 h): 183.6 IU/L | Na (6 h): 141 meq/L | PL (6 h): 127.8 mg/dL | RALB (6 h): 3 g/dL | TBIL (6 h): 0.024 mg/dL | TC (6 h): 78 mg/dL | TG (6 h): 48.2 mg/dL | TP (6 h): 5.3 g/dL | gamma-GTP (6 h): 1.2 IU/L | TERMINAL_BW (9 h): 212.2 g | APTT (9 h): 21.9 s | Bas (9 h): 0% | Eos (9 h): 0.6% | Fbg (9 h): 293 mg/dL | Ht (9 h): 39.7% | MCH (9 h): 20.8 pg | MCHC (9 h): 32.3% | MCV (9 h): 64.3 fL | Mono (9 h): 2.2% | PT (9 h): 16.8 s | Plat (9 h): 115.3 x10_4/uL | RBC (9 h): 616.6 x10_4/ul | Ret (9 h): 8.4% | WBC (9 h): 84.8 x10_2/uL | KIDNEY_L (9 h): 1 g | KIDNEY_R (9 h): 1 g | KIDNEY_TOTAL (9 h): 1.9 g | LIVER (9 h): 8.8 g | ALP (9 h): 1423.8 IU/L | AST (9 h): 70.8 IU/L | BUN (9 h): 11 mg/dL | CRE (9 h): 0.1 mg/dL | Ca (9 h): 10.9 mg/dL | Cl (9 h): 104.8 meq/L | DBIL (9 h): 0 mg/dL | GLC (9 h): 193 mg/dL | IP (9 h): 9.3 mg/dL | K (9 h): 4.1 meq/L | LDH (9 h): 163.2 IU/L | Na (9 h): 141.6 meq/L | PL (9 h): 113.2 mg/dL | RALB (9 h): 3.1 g/dL | TBIL (9 h): 0.024 mg/dL | TC (9 h): 70.2 mg/dL | TG (9 h): 49.8 mg/dL | TP (9 h): 5.4 g/dL | gamma-GTP (9 h): 1.2 IU/L | TERMINAL_BW (24 h): 228.8 g | APTT (24 h): 20.3 s | Bas (24 h): 0% | Eos (24 h): 0.6% | Fbg (24 h): 288.8 mg/dL | Ht (24 h): 38.7% | MCH (24 h): 20.8 pg | MCHC (24 h): 33.2% | MCV (24 h): 62.9 fL | Mono (24 h): 1.6% | PT (24 h): 16.1 s | Plat (24 h): 110.7 x10_4/uL | RBC (24 h): 616.2 x10_4/ul | Ret (24 h): 7.9% | WBC (24 h): 66.7 x10_2/uL | KIDNEY_L (24 h): 1 g | KIDNEY_R (24 h): 1 g | KIDNEY_TOTAL (24 h): 2 g | LIVER (24 h): 10.7 g | ALP (24 h): 1945.2 IU/L | AST (24 h): 80.8 IU/L | BUN (24 h): 15.8 mg/dL | CRE (24 h): 0.1 mg/dL | Ca (24 h): 10.7 mg/dL | Cl (24 h): 105.8 meq/L | DBIL (24 h): 0 mg/dL | GLC (24 h): 201.2 mg/dL | IP (24 h): 7.7 mg/dL | K (24 h): 4.1 meq/L | LDH (24 h): 185.8 IU/L | Na (24 h): 141.6 meq/L | PL (24 h): 137.4 mg/dL | RALB (24 h): 3 g/dL | TBIL (24 h): 0.004 mg/dL | TC (24 h): 71.8 mg/dL | TG (24 h): 97 mg/dL | TP (24 h): 5.4 g/dL
